≈ marks a conversion by molar mass, not a printed value.
Tests used:
Format in all cases: physicochemical
[1] = Dynamic vapor sorption - stability of solid form; settings: 25°C, humidity cycles 0-95% RH
Protocol: Vapour sorption experiments were performed in the instrument SPSx-1µ (Projekt Messtechnik, Ulm, Germany) at temperature of 25°C and the humidity cycles as shown below. Humidity cycle conditions: [table]

[2] = Solubility in aqueous solvents; settings: for Solubility: 37°C
Protocol: Approx. 340 mg (exactly weighed) test substance was weighed into a glass vial, followed by addition of 2.5 ml solvent. A stirring bar was added, the vial was fixed in a block heater at 37°C and the suspension was stirred with approx. 250 rpm. After 15 min and 1 h, samples were withdrawn, filtered through a 0.2 µm disposable filter, 50 µl of the clear filtrate were diluted with 950 µl DMSO and 2 µl thereof were analyzed by HPLC/UV.

[3] = Long term stability of solid form at 40°C/75%r.h.

In the case of `CN(C)C(=O)c1cc2cnc(Nc3ccc(N4CCNCC4)cn3)nc2n1C1CCCC1` [Form 1, 7-cyclopentyl-N,N-dimethyl-2-((5-(piperazin-1-yl)pyridin-2-yl)amino)-7H-pyrrolo[2,3-d]pyrimidine-6-carboxamide], the “Stability of solid form (in DVS)” value [1] is reported as “stable”, the Solubility ([2]; 0.01 N HCl ∼pH2.2, 15 min, listed as RBC free base form 1) is reported as 3800 µg/mL (≈ 8.74 mM) and the Solubility ([2]; 0.01 N HCl ∼pH2.2, 1 h, listed as RBC free base form 1) is reported as 3400 µg/mL (≈ 7.82 mM). The Solubility ([2]; 20mM NaAc pH4.5, 1 h, listed as RBC free base form 1) was 14200 µg/mL (≈ 32.7 mM), the solubility at 15 min ([2]; 20 mM sodium acetate buffer, 37 °C, pH 4.5, aqueous buffer, thermodynamic from solid, 20mM NaAc pH4.5, 15 min) was 14200 µg/mL (≈ 32.7 mM) and the Solubility ([2]; 50mM KH2PO4 pH6.5 + 2%TPGS, 15 min, listed as RBC free base form 1) was 3600 µg/mL. For the same compound, the Solubility ([2]; 50mM KH2PO4 pH6.5 + 2%TPGS, 1 h, listed as RBC free base form 1) was 1500 µg/mL, the Solubility ([2]; 50mM KH2PO4 pH6.8, 15 min, listed as RBC free base form 1) was 1500 µg/mL (≈ 3.45 mM) and the Solubility ([2]; 50mM KH2PO4 pH6.8, 1 h, listed as RBC free base form 1) was 1600 µg/mL (≈ 3.68 mM). The “Long term stability at 40°C/75%r.h. (4 weeks)” value [3] was “stable” and the “Long term stability at 40°C/75%r.h. (12 weeks)” value [3] was “stable”.

In the case of `CN(C)C(=O)c1cc2cnc(Nc3ccc(N4CCNCC4)cn3)nc2n1C1CCCC1` [Form 4, 7-cyclopentyl-N,N-dimethyl-2-((5-(piperazin-1-yl)pyridin-2-yl)amino)-7H-pyrrolo[2,3-d]pyrimidine-6-carboxamide, reference compound], the “Stability of solid form (in DVS)” value [1] is reported as “Unstable at RT and ambient conditions”.

For `CN(C)C(=O)c1cc2cnc(Nc3ccc(N4CCNCC4)cn3)nc2n1C1CCCC1` [Form 6, 7-cyclopentyl-N,N-dimethyl-2-((5-(piperazin-1-yl)pyridin-2-yl)amino)-7H-pyrrolo[2,3-d]pyrimidine-6-carboxamide], the “Stability of solid form (in DVS)” value [1] was “stable”, the Solubility ([2]; 0.01 N HCl ∼pH2.2, 15 min, listed as RBC free base form 6) was 400 µg/mL (≈ 0.92 mM) and the Solubility ([2]; 0.01 N HCl ∼pH2.2, 1 h, listed as RBC free base form 6) was 200 µg/mL (≈ 0.46 mM). The Solubility ([2]; 20mM NaAc pH4.5, 15 min, listed as RBC free base form 6) was 12200 µg/mL (≈ 28.1 mM), the Solubility ([2]; 20mM NaAc pH4.5, 1 h, listed as RBC free base form 6) was 9700 µg/mL (≈ 22.3 mM) and the Solubility ([2]; 50mM KH2PO4 pH6.5 + 2%TPGS, 15 min, listed as RBC free base form 6) was 2800 µg/mL. For the same compound, the Solubility ([2]; 50mM KH2PO4 pH6.5 + 2%TPGS, 1 h, listed as RBC free base form 6) was 2400 µg/mL, the Solubility ([2]; 50mM KH2PO4 pH6.8, 15 min, listed as RBC free base form 6) was 1200 µg/mL (≈ 2.76 mM) and the Solubility ([2]; 50mM KH2PO4 pH6.8, 1 h, listed as RBC free base form 6) was 500 µg/mL (≈ 1.15 mM). For the same compound, the “Long term stability at 40°C/75%r.h. (4 weeks)” value [3] was “stable” and the “Long term stability at 40°C/75%r.h. (12 weeks)” value [3] was “stable”.

In the case of `CN(C)C(=O)c1cc2cnc(Nc3ccc(N4CCNCC4)cn3)nc2n1C1CCCC1` [Form 7, 7-cyclopentyl-N,N-dimethyl-2-((5-(piperazin-1-yl)pyridin-2-yl)amino)-7H-pyrrolo[2,3-d]pyrimidine-6-carboxamide], the “Stability of solid form (in DVS)” value [1] is reported as “stable”, the Solubility ([2]; 0.01 N HCl ∼pH2.2, 15 min, listed as RBC free base form 7) is reported as 3100 µg/mL (≈ 7.13 mM) and the Solubility ([2]; 0.01 N HCl ∼pH2.2, 1 h, listed as RBC free base form 7) is reported as 3000 µg/mL (≈ 6.9 mM). The Solubility ([2]; 20mM NaAc pH4.5, 15 min, listed as RBC free base form 7) was 11300 µg/mL (≈ 26 mM), the solubility at 1 h ([2]; 20 mM sodium acetate buffer, 37 °C, pH 4.5, aqueous buffer, thermodynamic from solid, 20mM NaAc pH4.5, 1 h) was 11500 µg/mL (≈ 26.5 mM) and the Solubility ([2]; 50mM KH2PO4 pH6.5 + 2%TPGS, 15 min, listed as RBC free base form 7) was 800 µg/mL. It also gave a Solubility ([2]; 50mM KH2PO4 pH6.5 + 2%TPGS, 1 h, listed as RBC free base form 7) of 800 µg/mL, a Solubility ([2]; 50mM KH2PO4 pH6.8, 15 min, listed as RBC free base form 7) of 500 µg/mL (≈ 1.15 mM) and a Solubility ([2]; 50mM KH2PO4 pH6.8, 1 h, listed as RBC free base form 7) of 1100 µg/mL (≈ 2.53 mM). The “Long term stability at 40°C/75%r.h. (4 weeks)” value [3] was “stable” and the “Long term stability at 40°C/75%r.h. (12 weeks)” value [3] was “stable”.

`CN(C)C(=O)c1cc2cnc(Nc3ccc(N4CCNCC4)cn3)nc2n1C1CCCC1` [Form 8, 7-cyclopentyl-N,N-dimethyl-2-((5-(piperazin-1-yl)pyridin-2-yl)amino)-7H-pyrrolo[2,3-d]pyrimidine-6-carboxamide] gave a Solubility ([2]; 0.01 N HCl ∼pH2.2, 15 min, listed as RBC free base form 8) of 4000 µg/mL (≈ 9.2 mM), a Solubility ([2]; 0.01 N HCl ∼pH2.2, 1 h, listed as RBC free base form 8) of 1000 µg/mL (≈ 2.3 mM) and a Solubility ([2]; 50mM KH2PO4 pH6.5 + 2%TPGS, 15 min, listed as RBC free base form 8) of 3900 µg/mL. For the same compound, the Solubility ([2]; 50mM KH2PO4 pH6.5 + 2%TPGS, 1 h, listed as RBC free base form 8) was 900 µg/mL, the “Long term stability at 40°C/75%r.h. (4 weeks)” value [3] was “stable” and the “Long term stability at 40°C/75%r.h. (12 weeks)” value [3] was “stable”.

Source: EP3156406A1, “CRYSTALLINE FORMS OF RIBOCICLIB FREE BASE” (ratiopharm GmbH, priority 2015, dated 2017)
